The source of these data is patent US20230132973A1, “DIHYDRO-SPIRO[INDOLINE-3:1'-iSOQUINOLIN]-2-ONES AS ANTIMALARIAL AGENTS” (The University of Buea, priority 2020, published 2023).

Entries after “also recorded” stand apart in the source; their conditions may differ. Read-outs that look alike come from different tables or passages of the source.

The subject of series [1] is CQ-sensitive 3D7 strain of P. falciparum. The series is described as follows: SYBR green I-based parasite growth inhibition assay, 3D7 strain. To be noted: for EC50: Plasmodium falciparum. It counts as cell-based, Plasmodium falciparum.
The subject of series [2] is asexual blood stages of P. falciparum. Description: Life cycle stage specific action by microscopy of Giemsa-stained thin smears. It counts as cell-based, Plasmodium falciparum. To be noted: 10 μM, 24 h; for stage specific action on asexual blood stages (ring, trophozoite, schizont): treated at early ring, mid-trophozoite or mid-schizont; for vacuolation in treated parasites: Giemsa-stained thin smears. The procedure: The life cycle stage specific action of (±)-moxiquindole was determined by treatment of parasites at different time points followed by microscopic analysis of Giemsa-stained thin blood smears. Stage proportions were calculated for each asexual parasite stage in the drug treated wells relative to the same stage in the negative control wells.
The inhibitory effects of active compounds or reference drugs on parasite development and schizont rupture were determined by quantitative light microscopy as previously described (Lee et al., 2015). Briefly, synchronized cultures (1.5% hematocrit and 3% parasitemia) at different time-points (early rings, mid trophozoites and schizonts) were treated with either test compound or controls at 10 μM final concentration for 24 h under regular culture conditions. Following treatment, Giemsa-stained thin smears were prepared and parasites were counted in 1,000 erythrocytes per treatment. Stage proportions in test wells relative to solvent control wells were calculated and used to assess the in vitro effects of each compound on trophozoites and schizont development as well as merozoite egress and invasion.

Series [3] has as its system vacuolar lipid dynamics in P. falciparum. Description: Effect on vacuolar lipid dynamics (Oil Red O staining). It counts as cell-based, Plasmodium falciparum. The note with it: trophozoite stage parasites, 24 h. The procedure: Because cellular vacuolation may result from perturbation of intracellular lipid content, we investigated the effect of (±)-moxiquindole on vacuolar lipid dynamics using fluorescent Oil red O as lipid stain.
The effect of the compounds on intracellular lipid dynamics was assessed by measurement of intracellular lipid content using Oil Red O. Briefly, early rings or late trophozoite stage parasites (30 hpi) were treated with the compounds or controls for 24 h under regular culture conditions. Following treatment, inhibitors were removed by centrifugation at 2500 rpm for 5 min and pellets were washed in equal volumes of 1×PBS. The parasites were fixed with 4% paraformaldehyde for 30 min at room temperature and pelleted at 2500. Three volumes of Oil Red O (ORO) stock solution (5 mg/mL in 100% isopropanol) were diluted in two volumes of distilled water and filtered prior to use. About 100 μL of the ORO were added to parasite pellets in the tube and incubated for 30 minutes. Parasites were pelleted and washed twice in distilled water. Thereafter, parasites were deposited on pre-cleaned coverslips and air dried. Dried coverslips were mounted in DAPI antifade reagent onto cleaned slides, air dried and viewed under a 100× oil immersion lens and images acquired using a Leica DM1000 fluorescence microscope suite (LAS version 4.5).

Series [4] deals with Malaria parasites (ring-stage parasitized erythrocytes). The series is described as follows: Drug-combination (drug-drug interaction) studies, SYBR-Green I. It is filed as cell-based, Plasmodium falciparum. The note with it: in combination with artemisinin. On the procedure:
In view of the overlapping modes of action between the hybrids and some known antimalarial drugs in terms of targeted cellular processes, we investigated the interaction between these compounds at variable combination ratios. Malaria parasites were continuously cultured and synchronized as earlier described prior to the assay.
Briefly, two-fold drug dilutions were prepared using a variable potency ratio drug combination approach, starting at 5EC50A: 0EC50B to 0EC50A: 5EC50B in serum-free medium, where A and B represent the different partner molecules.
The test was run for 72 h and terminated when the untreated parasites were at the early trophozoite stage of the second cycle. Parasite viability was assessed by the SYBR-Green I fluorescence-based assay as earlier described. Dose-response curves and EC50 values of each combination and drug alone were obtained using GraphPad Prism v.5.0 and Microsoft Excel was used to calculate mean EC50 values and the standard error of the mean.

Series [5] deals with P. chabaudi-infected mice. The series is described as follows: Peter's four-day suppressive test (chemosuppressive activity). It is filed as in vivo, Swiss albino mice. On the procedure: Following the encouraging in vitro antiplasmodial activities and cytotoxicity profiles reported above, as well as the ADMET properties of the primary and secondary hits identified in this study, studies were carried out to assess the in vivo efficacy of these compounds in laboratory mice. Chemosuppressive potentials were assessed using the Peter's four-day test whereas the ability of each compound to cure an established plasmodial infection was determined using the Rane's test. To assess the in vivo chemosuppressive potential of the compounds, groups of P. chabaudi-infected mice were treated by ip injection for 3 days following infection using fixed doses of 0.03, 0.3, 3, 10, or 30 mg/kg for each compound. The percent suppression of parasite growth in treated groups was calculated relative to the control group and the growth inhibition curves plotted.
Eight-week old male Swiss albino mice weighing approximately 23±3 g were housed in cages and maintained in a well-ventilated room under standard environmental conditions of temperature at 22-24° C., under a 12 h dark-light cycle, with food and water provided ad libitum.
The animals were allowed one week acclimation before commencement of the study. Three (3) mice were infected with stocked blood containing Plasmodium chabaudi parasites and used as donors. In brief, frozen blood containing the sulfadoxine/pyrimethamine resistant P. c. chabaudi (AS(50S/P) parasites was thawed and about 200 μL parasites were injected intra-peritoneally (i.p) into each of the three mice and parasitemia monitored through blood smear until a 20% threshold was reached. These infected animals then served as donors to the experimental animals. Ethical approval for the study was obtained from the University of Douala Institutional Review Board (N^oIEC-UD/1146/09/2017/A).
In vivo efficacies were conducted following a modification of the Peter's four-day suppressive test as previously described (Lee et al., 2014, Tarkang et al., 2014). Briefly, following parasite passage in donor mice, the mice were euthanized using diethyl ether and P. c. chabaudi infected blood was obtained by cardiac puncture and placed into heparinized tubes. The blood was then diluted with phosphate buffered saline (PBS) and immediately used to infect the experimental mice. Mice were randomly divided into seven (7) groups of 3 animals and each mouse was injected with 1×10^7 infected erythrocytes intraperitoneally (Day 0). The mice were kept for 24 hours to establish infection and Giemsa thin blood smears were prepared to quantify parasites (Day 1). Thereafter, groups 1, 2, 3, 4 and 5 were treated with compounds dissolved in 1×PBS, intraperitoneally at dosages of 30, 10, 3, 0.3 and 0.03 mg/kg body weight, respectively, while groups 6 and 7 were treated with vehicle or chloroquine at 10 mg/kg, respectively for three consecutive days (Day 1-Day 3). Twenty-four (24) and ninety-six (96) hours post-infection, thin blood smears were prepared from each animal with blood obtained from the tail vein, fixed in methanol and stained with 10% Giemsa.
Parasitemia was determined by light microscopy using a 100× objective lens and the following equation: […]
Average percentage chemosuppression was calculated as
Where A is mean parasitemia in negative control and B is mean parasitemia in test group

Series [6] has as its system hemoglobin metabolism in P. falciparum ring and trophozoite stage parasites. The series is described as follows: Effect on hemoglobin degradation (intraparasitic hemoglobin content). It is filed as cell-based, Plasmodium falciparum. To be noted: 10 μM, 24 h, relative to E64-treated cultures. On the procedure: Owing to the fact that the DSIIQs are constructed from the THIQ pharmacophore of naphthylisoquinolines, which appear to target proteases involved in hemoglobin degradation, we assessed the effect of this DSIIQ on hemoglobin metabolism. Briefly, tightly synchronized ring and trophozoite stage parasites were treated with test compounds for 24 h followed by parasite isolation and quantification of the intraparasitic hemoglobin contents.
To investigate drug effects on hemoglobin degradation, early ring and mid-trophozoite stage parasites (1.5% hematocrit, 5% parasitemia) were co-cultured with the test compounds or experimental controls (0.1% DMSO, chloroquine, artemisinin NITD609 and E64) at a final concentration of 10 μM. The cultures were incubated at 37° C. and 5% CO2 for 24 h. Following incubation, inhibitors were removed by centrifugation at 1800 rpm for 5 min. The pellets were washed in an equal volume of 1×PBS and re-suspended in same volume of 0.1% saponin (in 1×PBS) for 3 min. Isolated parasites were pelleted at 2500 rpm for 5 min and washed twice in an equal volume of 1×PBS. The resulting parasite pellets were permeabilized by treatment in 20 μL of 1% Triton X-100 (in 1×PBS) for 5 min. Intraparasitic hemoglobin content was measured at 550 nm using a Nanodrop spectrophotometer, and folds increase in intra-parasite hemoglobin content was calculated relative to the E64-treated controls.

Regarding `C[C@@H]1CC[C@H]2[C@@H](C)C(=O)O[C@@H]3O[C@@]4(C)CC[C@@H]1[C@]32OO4` [Artemisinin, artemisinin], the EC50 in series [1] (Pf 3D7, 72 h, read-out: EC50) is 15.9 nM. Also, the “stage specific action on asexual blood stages (ring, trophozoite, schizont)” value (shortened to “stage specific action”) in series [2] is “high proportions of the treated parasite stage at each treatment time-point; also recorded: exhibits inhibitory activities against ring-to-trophozoite development, trophozoite-to-schizont development and schizont rupture”. Besides, the “neutral lipid bodies / vacuolar lipid uptake (Oil red O)” value in series [3] is “no effect on vacuolar lipid uptake”.
For `COc1cc2c(cc1OC)C1(NCC2)C(=O)N(Cc2ccc(Br)cc2)c2ccc(Cl)cc21` (stereo not drawn) [Compound 8k], the “parasite growth inhibition in primary assays” value in series [1] (primary screening at 10 μM, Pf 3D7, 72 h) is about 52%.
`C[C@H]1Cc2c([nH]c3cc(Cl)c(F)cc23)[C@@]2(N1)C(=O)Nc1ccc(Cl)cc12` [NITD609]: in series [2], the “stage specific action” value is “exhibits inhibitory activities against ring-to-trophozoite development, trophozoite-to-schizont development and schizont rupture”; the “vacuolation in treated parasites” value is “induced vacuolation in parasites”.
In turn, `COc1cc2c(cc1OC)C1(NCC2)C(=O)Nc2ccc(F)cc21` (stereo not drawn) [Compound 8o, 5-fluoro-6′,7′-dimethoxy-3′,4′-dihydro-2′H-spiro[indoline-3,1′-isoquinolin]-2-one] displayed a melting point of 98 to 99 °C.
`CCN(CC)CCCC(C)Nc1ccnc2cc(Cl)ccc12` (stereo not drawn) [chloroquine] came in with a 50% effective concentration (EC50) in series [1] (3D7, 72 h) of 13.9 nM. For the same compound, the “stage specific action” value in series [2] is “rapid accumulation of early rings and trophozoites but not schizonts; also recorded: exhibits inhibitory activities against ring-to-trophozoite development, trophozoite-to-schizont development and schizont rupture”. The “neutral lipid bodies / vacuolar lipid uptake (Oil red O)” value in series [3] is “devoid of neutral lipid bodies”. For the same compound, the “combination index (CI)” value in series [4] was 1.183. For the same compound, the suppression of parasitemia entry in series [5] (10 mg/kg, compared with 98% by test compounds at 3.0 mg/kg) is “comparable level of suppression of parasitemia”.
Take `COc1cc2c(cc1OC)C1(NCC2)C(=O)Nc2cc(F)c(F)cc21` (stereo not drawn) [Compound 8g, 5,6-difluoro-6′,7′-dimethoxy-3′,4′-dihydro-2′H-spiro[indoline-3,1′-isoquinolin]-2-one]: the melting point lay in the range of 220 to 221 °C.
The same measure, in the same setting: with `COc1cc2c(cc1OC)C1(NCC2)C(=O)Nc2ccc([N+](=O)[O-])cc21` (stereo not drawn) [Compound 8e, 6′,7′-dimethoxy-5-nitro-3′,4′-dihydro-2′H-spiro[indoline-3,1′-isoquinolin]-2-one] the figure was 174 to 175 °C.
As to `COc1cc2c(cc1OC)C1(NC(C)C2)C(=O)Nc2ccc(Cl)cc21` (racemic) [Compound 11, 5-chloro-6′,7′-dimethoxy-3′-methyl-3′,4′-dihydro-2′H-spiro[indoline-3,1′-isoquinolin]-2-one], the “times more potent than (±)-moxiquindole” value in series [1] (Pf 3D7) turned out to be 80 times. For the same compound, the “fold more active than the primary hit (±)-moxiquindole” value in series [1] (Pf 3D7 EC50 ratio) is listed as 77 fold. Also, the EC50 in series [1] (Pf 3D7, 72 h, read-out: EC50) came out at 24 nM. Also, in series [2], the “stage specific action” value is “exhibits inhibitory activities against ring-to-trophozoite development, trophozoite-to-schizont development and schizont rupture”; the “vacuolation in treated parasites” value is “induced vacuolation in parasites”. In series [6], the “intraparasitic hemoglobin content / accumulation” value was “accumulation of intra-parasitic hemoglobin”. In series [5] (0.3 mg/kg ip), the suppression of parasitemia entry is reported as “slight advantage over (±)-moxiquindole”. In series [5] (3.0 mg/kg ip), this compound came in with a suppression of parasitemia of 98%. Also, the ED50 in series [5] (Mus musculus, ip, 72 h, read-out: suppressive ED50) was determined as 0.049 mg/kg.
The compound `COc1cc2c(cc1OC)C1(NCC2)C(=O)Nc2ccc(N)cc21` (stereo not drawn) [Compound 8f, 5-amino-6′,7′-dimethoxy-3′,4′-dihydro-2′H-spiro[indoline-3,1′-isoquinolin]-2-one] yielded a melting point of 186 to 187 °C.
Consider `CC(C)C[C@H](NC(=O)[C@H]1O[C@@H]1C(=O)O)C(=O)NCCCCN=C(N)N` (relative stereo) [Compound E64, L-trans-epoxysuccinyl-leucylamido-(4-guanidino)], for which the “stage specific action” value in series [2] is “only inhibiting schizont accumulation”. The “intraparasitic hemoglobin content / accumulation” value in series [6] is recorded as “minimal effect on hemoglobin degradation”. In addition, the “neutral lipid bodies / vacuolar lipid uptake (Oil red O)” value in series [3] is “no effect on vacuolar lipid uptake”.

For orientation: EC50 means the concentration at which the effect is half-maximal. The melting point is the temperature of the solid-liquid transition. The ED50 is the dose at which the effect has come halfway, by size or by number of responders.
